Measured values taken from the supplement of paper PMC11061612.

Key:
Assay in all cases: Bliss excess, mean over the matrix (fraction); higher = more synergy
[1] = tested on: NCI-H2405 (Lung Adenocarcinoma)
How it was run: (§1)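 After 24 hours at 37°C and 5% CO2 in 1536-well plates, cells in DMEM/F12 or RPMI plus 10% FBS received two-drug dose matrices for 72 hours. Viability came from CellTiter-Glo 2.0 luminescence and was scaled as inhibition, anchored at 0 by vehicle wells and at 1 by blank wells. Combination Emax is taken as the second-highest inhibition in the matrix, and Bliss excess as the observed combination effect less EA + EB − EA·EB, with EA and EB the single-agent effects.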

EW-13 (Ewing's Sarcoma) = tested on: EW-13 (Ewing's Sarcoma)
How it was run: as §1

BT-20 (Breast Carcinoma) = tested on: BT-20 (Breast Carcinoma)
How it was run: as §1

[2] = tested on: HSC-2 (Oral Cavity Carcinoma)
How it was run: as §1

[3] = tested on: SCC-9 (Oral Cavity Carcinoma)
How it was run: as §1

[4] = tested on: VMRC-LCD (Lung Adenocarcinoma)
How it was run: as §1

GOTO (Neuroblastoma) = tested on: GOTO (Neuroblastoma)
How it was run: as §1

[5] = tested on: LOU-NH91 (Squamous Cell Lung Carcinoma)
How it was run: as §1

[6] = tested on: OVISE (Ovarian Carcinoma)
How it was run: as §1

[7] = tested on: EBC-1 (Squamous Cell Lung Carcinoma)
How it was run: as §1

[8] = tested on: NCI-H322M (Lung Adenocarcinoma)
How it was run: as §1

[9] = tested on: H-EMC-SS (Chondrosarcoma)
How it was run: as §1

[10] = tested on: KINGS-1 (Low Grade Glioma)
How it was run: as §1

[11] = tested on: PFSK-1 (Other Solid Carcinomas)
How it was run: as §1

[12] = tested on: NCI-H513 (Other Solid Carcinomas)
How it was run: as §1

EW-18 (Ewing's Sarcoma) = tested on: EW-18 (Ewing's Sarcoma)
How it was run: as §1

NH-12 (Neuroblastoma) = tested on: NH-12 (Neuroblastoma)
How it was run: as §1

[13] = tested on: LC4-1 (B-Lymphoblastic Leukemia)
How it was run: as §1

[14] = tested on: ASH-3 (Thyroid Gland Carcinoma)
How it was run: as §1

[15] = tested on: BV-173 (Chronic Myelogenous Leukemia)
How it was run: as §1

Compound | Bliss excess [1] | Bliss excess (EW-13 (Ewing's Sarcoma)) | Bliss excess (BT-20 (Breast Carcinoma)) | Bliss excess [2] | Bliss excess [3] | Bliss excess [4] | Bliss excess (GOTO (Neuroblastoma)) | Bliss excess [5] | Bliss excess [6] | Bliss excess [7] | Bliss excess [8] | Bliss excess [9] | Bliss excess [10] | Bliss excess [11] | Bliss excess [12] | Bliss excess (EW-18 (Ewing's Sarcoma)) | Bliss excess (NH-12 (Neuroblastoma)) | Bliss excess [13] | Bliss excess [14] | Bliss excess [15]
Cc1c2c(nn1C)CSCc1cc(n(C)n1)CSc1cc(c3ccccc3c1)OCCCc1c(C(=O)O)n(C)c3c-2c(Cl)ccc13 [AZD5991] + Cn1cnc2c(F)c(Nc3ccc(Br)cc3Cl)c(C(=O)NOCCO)cc21 [Selumetinib] (first compound max 1 µM, 7x7, partner max 3 µM) | 0.0595 | 0.0215 | 0.153 | -0.0024 | 0.0245 | -0.0229 | 0.0177 | -0.025 | -0.0588 | -0.0019 | 0.0308 | -0.017 | -0.0147 | 0.0395 | -0.0255 | 0.002 | 0.0026 | 0.0467 | 0.0175 | 0.0265
Cc1c2c(nn1C)CSCc1cc(n(C)n1)CSc1cc(c3ccccc3c1)OCCCc1c(C(=O)O)n(C)c3c-2c(Cl)ccc13 [AZD5991] + C[C@@H](Nc1cc(F)cc(F)c1)c1cc(C(=O)N(C)C)cc2c(=O)cc(N3CCOCC3)oc12 [AZD8186] (first compound max 1 µM, 7x7, partner max 3 µM) | -0.0114 | -0.0535 | 0.0382 | 0.0042 | -0.0058 | -0.024 | -0.0589 | -0.0542 | 0.0069 | 0.0298 | 0.0225 | -0.0325 | -0.0111 | 0.0429 | 0.0221 | 0.0122 | 0.0311 | -0.057 | 0.0027 | -0.0917
NC1(C(=O)N[C@@H](CCO)c2ccc(Cl)cc2)CCN(c2ncnc3[nH]ccc23)CC1 [Capivasertib] + CCN(CCO)CCCOc1ccc2c(Nc3cc(CC(=O)Nc4cccc(F)c4)[nH]n3)ncnc2c1 [AZD2811] (first compound max 10 µM, 7x7, partner max 1 µM) | -0.0535 | 0.007 | -0.0003 | 0.0572 | -0.0281 | 0.0111 | 0.0047 | -0.0075 | 0.0015 | 0.0429 | 0.0203 | -0.0105 | -0.0012 | -0.027 | -0.0479 | -0.0358 | -0.0439 | -0.0221 | -0.0147 | -0.031
COc1nnc2ccc(N3CCC(c4ccc(OCCN5CCN(C)C(=O)[C@H]5C)cc4)CC3)nn12 [AZD5153] + Cn1cnc2c(F)c(Nc3ccc(Br)cc3Cl)c(C(=O)NOCCO)cc21 [Selumetinib] (first compound max 1 µM, 7x7, partner max 10 µM) | -0.0297 | -0.0577 | 0.0309 | 0.045 | 0.042 | -0.0401 | -0.0522 | -0.0463 | -0.0304 | 0.0979 | 0.0052 | 0.0176 | -0.029 | 0.0031 | -0.051 | -0.0364 | -0.0476 | 0.012 | -0.0338 | -0.0503
NC1(C(=O)N[C@@H](CCO)c2ccc(Cl)cc2)CCN(c2ncnc3[nH]ccc23)CC1 [Capivasertib] + C[C@@H]1COCCN1C2=NC(=NC(=C2)C3(CC3)[S@](=N)(=O)C)C4=C5C=CNC5=NC=C4 [AZD6738] (first compound max 10 µM, 7x7, partner max 10 µM) | -0.0513 | 0.0091 | -0.0442 | -0.0096 | -0.0111 | -0.0185 | -0.0379 | -0.0192 | -0.0459 | -0.0315 | -0.0797 | -0.0022 | -0.0197 | -0.0956 | -0.0601 | -0.0504 | -0.0643 | 0.0099 | -0.0468 | -0.0271
COc1nnc2ccc(N3CCC(c4ccc(OCCN5CCN(C)C(=O)[C@H]5C)cc4)CC3)nn12 [AZD5153] + C=CCn1c(=O)c2cnc(Nc3ccc(N4CCN(C)CC4)cc3)nc2n1-c1cccc(C(C)(C)O)n1 [AZD1775] (first compound max 1 µM, partner max 1 µM) | 0.0195 | -0.0239 | -0.0856 | -0.0167 | 0.0175 | -0.0025 | -0.0756 | 0.0216 | -0.0081 | 0.005 | -0.106 | -0.0488 | -0.0123 | -0.109 | -0.0857 | -0.0163 | -0.123 | -0.0018 | -0.024 | -0.0256
COc1nnc2ccc(N3CCC(c4ccc(OCCN5CCN(C)C(=O)[C@H]5C)cc4)CC3)nn12 [AZD5153] + Cc1c2c(nn1C)CSCc1cc(n(C)n1)CSc1cc(c3ccccc3c1)OCCCc1c(C(=O)O)n(C)c3c-2c(Cl)ccc13 [AZD5991] (first compound max 1 µM, 7x7, partner max 1 µM) | 0.01 | -0.0502 | 0.0213 | -0.0731 | -0.0322 | 0.0098 | -0.0096 | -0.0449 | -0.039 | -0.0528 | -0.0517 | -0.0212 | -0.0146 | 0.0454 | -0.0287 | 0.0235 | -0.0206 | -0.0736 | -0.114 | 0.0184
NC1(C(=O)N[C@@H](CCO)c2ccc(Cl)cc2)CCN(c2ncnc3[nH]ccc23)CC1 [Capivasertib] + CC(C)n1c(=O)n(C)c2cnc3cc(F)c(-c4ccc(OCCCN5CCCCC5)nc4)cc3c21 [AZD1390] (first compound max 10 µM, 7x7, partner max 0.3 µM) | -0.0513 | -0.024 | -0.0315 | -0.0117 | -0.027 | -0.0297 | -0.0465 | -0.0997 | -0.042 | -0.0046 | -0.0166 | -0.0296 | -0.0398 | -0.0598 | -0.0506 | -0.084 | -0.134 | 0.0461 | -0.0478 | -0.0639
CN(CCO)CC[C@H](CSc1ccccc1)Nc1ccc(S(=O)(=O)NC(=O)c2ccc(N3CCC([C@@H](O)c4ccccc4-c4ccc(Cl)cc4)CC3)cc2)cc1S(=O)(=O)C(F)(F)F [AZD4320] + C=CCn1c(=O)c2cnc(Nc3ccc(N4CCN(C)CC4)cc3)nc2n1-c1cccc(C(C)(C)O)n1 [AZD1775] (first compound max 1 µM, partner max 1 µM) | -0.0234 | 0.0172 | 0.0557 | 0.058 | -0.0054 | -0.0459 | -0.0268 | 0.105 | 0.0598 | 0.0187 | -0.0521 | -0.0004 | 0.0509 | 0.0344 | 0.0699 | 0.0349 | -0.0149 | 0.0369 | 0.0819 | -0.0038
CN(CCO)CC[C@H](CSc1ccccc1)Nc1ccc(S(=O)(=O)NC(=O)c2ccc(N3CCC([C@@H](O)c4ccccc4-c4ccc(Cl)cc4)CC3)cc2)cc1S(=O)(=O)C(F)(F)F [AZD4320] + Cc1cc2ncnn2cc1Nc1ncc2c(n1)n(C1CCOCC1)c(=O)n2C [AZD7648] (first compound max 1 µM, 7x7, partner max 10 µM) | -0.0351 | -0.0223 | 0.0391 | 0.0257 | -0.0121 | -0.0595 | 0.075 | -0.012 | -0.0033 | -0.0396 | -0.0426 | -0.0218 | -0.0152 | 0.0756 | -0.0438 | -0.0372 | -0.0248 | 0.0066 | -0.0866 | -0.0643
Cn1cnc2c(F)c(Nc3ccc(Br)cc3Cl)c(C(=O)NOCCO)cc21 [Selumetinib] + CC(C)n1c(=O)n(C)c2cnc3cc(F)c(-c4ccc(OCCCN5CCCCC5)nc4)cc3c21 [AZD1390] (first compound max 10 µM, 7x7, partner max 0.3 µM) | 0.0387 | -0.0428 | -0.0189 | -0.0212 | 0.0185 | -0.0191 | 0.0225 | 0.0028 | -0.0339 | -0.0265 | -0.0601 | -0.0135 | -0.0115 | -0.0492 | -0.0769 | -0.0359 | -0.064 | -0.0312 | -0.0553 | -0.03
CC(=O)c1c(C)c2cnc(Nc3ccc(N4CCNCC4)cn3)nc2n(C2CCCC2)c1=O [Palbociclib] + Cn1cnc2c(F)c(Nc3ccc(Br)cc3Cl)c(C(=O)NOCCO)cc21 [Selumetinib] (first compound max 10 µM, 7x7, partner max 10 µM) | -0.016 | -0.0287 | 0.0253 | 0.0254 | 0.0811 | -0.0448 | 0.0623 | -0.0975 | -0.0174 | 0.0982 | 0.0515 | 0.008 | -0.0272 | -0.0505 | -0.035 | -0.0542 | 0.0409 | 0.0312 | -0.0805 | -0.0657
Cc1c2c(nn1C)CSCc1cc(n(C)n1)CSc1cc(c3ccccc3c1)OCCCc1c(C(=O)O)n(C)c3c-2c(Cl)ccc13 [AZD5991] + CN(C)CCCOc1ccc(-c2ccc3ncc4c(c3c2)n(C2CCOCC2)c(=O)n4C)cn1 [AZD0156] (first compound max 1 µM, 7x7, partner max 1 µM) | -0.0075 | -0.0024 | 0.0258 | -0.0089 | -0.0237 | 0.0165 | -0.0418 | 0.01 | -0.0007 | 0.0581 | -0.0017 | -0.0106 | 0.0128 | 0.0228 | -0.004 | -0.0213 | -0.0511 | -0.0177 | -0.0253 | -0.114
CC1(C)CCC(CN2CCN(c3ccc(C(=O)NS(=O)(=O)c4ccc(NCC5CCOCC5)c([N+](=O)[O-])c4)c(Oc4cnc5[nH]ccc5c4)c3)CC2)=C(c2ccc(Cl)cc2)C1 [Venetoclax] + Cc1cc2ncnn2cc1Nc1ncc2c(n1)n(C1CCOCC1)c(=O)n2C [AZD7648] (first compound max 1 µM, 7x7, partner max 10 µM) | -0.0492 | -0.0417 | -0.0229 | -0.0177 | -0.0211 | -0.0675 | -0.0442 | -0.0202 | -0.0464 | 0.031 | -0.0397 | -0.0179 | -0.0474 | 0.0904 | -0.0321 | 0.0188 | -0.0072 | 0.0187 | -0.0732 | -0.0492
